In patent publication US20260294922A1, “Inhibitors of JUN N-Terminal Kinases (JNK1, JNK2, and/or JNK3) and Mitogen-Activated Protein Kinases (MAPK8, MAPK9, and/or MAPK10) and Methods of Using Same” (Baylor College of Medicine, priority 2023, published 2026):
Several values for one entry are separate records, joined by “and”; a condition that tells them apart may be missing. Identical values can stand only once.

Assays:
CSNK1E = target: T1, CSNK1E (Homo sapiens, UniProt P49674); assay: ThermoFisher SelectScreen, CSNK1E; format: binding
T1 construct: purchased ThermoFisher (SelectScreen)

[1] = In vitro metabolism in human liver microsomes; conditions: human, microsomes
Protocol: The target product profile seeks to deliver JNK inhibitor as a once daily oral administration. To prioritize compounds for further development, in vitro metabolism of several CDD JNK inhibitors were determined to approximate the plasma half-life and the rate of metabolism of the compounds in vivo.

MEK4 = target: T2, MEK4 (Homo sapiens, UniProt P45985); assay: ThermoFisher SelectScreen, MEK4; format: binding
T2 construct: purchased ThermoFisher (SelectScreen)
T2 sequence (P45985 1-399): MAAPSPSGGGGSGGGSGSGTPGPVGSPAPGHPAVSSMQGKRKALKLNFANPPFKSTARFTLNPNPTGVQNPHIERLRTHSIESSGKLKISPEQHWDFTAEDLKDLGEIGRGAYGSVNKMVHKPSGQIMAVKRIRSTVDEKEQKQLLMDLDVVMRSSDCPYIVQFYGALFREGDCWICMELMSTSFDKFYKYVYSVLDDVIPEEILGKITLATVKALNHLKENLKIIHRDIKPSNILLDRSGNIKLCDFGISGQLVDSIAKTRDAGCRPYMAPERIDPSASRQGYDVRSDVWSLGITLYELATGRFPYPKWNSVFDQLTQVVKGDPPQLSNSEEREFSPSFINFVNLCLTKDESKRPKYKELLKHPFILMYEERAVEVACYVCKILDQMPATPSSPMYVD

hVPS34 = target: T3, hVPS34 (Homo sapiens, UniProt Q8NEB9); assay: ThermoFisher SelectScreen, hVPS34; format: binding; conditions: Table 4
T3 construct: purchased ThermoFisher (SelectScreen, outsourced service)
Protocol: (§1) To mitigate violation of the linear initial velocity principle, which is a problem in end-point assays when doing dose-responses, the enzyme concentration was carefully optimized, in a total assay volume of 25 μL. The assay was performed using 10 μM ATP, 0.02% Tween-20, kinase buffer from Cell Signaling (#9802) in white 384-well plates. The kinase reaction was done for 30 or 60 min at 30° C., and detection of leftover ATP was measured according to Promega's protocol. […] Fractional activities were obtained from normalized data. Non-linear regression (GraphPad Prism7) and a modified Morrison equation for tight binding was used to determine apparent Ki values for inhibitors, assuming no particular mode of inhibition. An orthogonal binding assay (LanthaScreen) was outsourced to ThermoFisher Scientific's SelectScreen Services to determine IC50 values.
(§2) One of the earliest compounds to be synthesized with favorable enzymatic activity towards JNK1 and JNK3 was CDD-2346. A KINOMEscan was performed for CDD-2346 to establish whether the selectivity of this chemical scaffold was suitable or required optimization. […] To confirm that the activity against each kinase was a true result and not a false positive, CDD-2346 was evaluated in kinase assays using ThermoFisher SelectScreen platform. The results from these assays are provided herein (Table 4). The important innovative steps described are the optimization of selectivity a) for JNK isoforms; b) for kinases considered “in-pathway”; and c) to avoid kinases considered “out-of-pathway”.

JNK1 [2] = target: T4, JNK1 (Homo sapiens, UniProt P45983); assay: Promega NanoBRET intracellular target engagement (tracer K10 displacement), JNK1; format: cell-based
JNK1 [3] = target: T4, JNK1; assay: JNK1 kinase (intrinsic ATPase, Kinase-Glo) assay; format: biochemical
Method in brief: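 Full-length construct not stated; kinases hydrolyse ATP without peptide substrate, reaction run 30 or 60 min at 30° C, remaining ATP read by Kinase-Glo luminescence with no-kinase controls. Apparent Ki from normalized fractional activities fitted to modified Morrison tight-binding equation; orthogonal LanthaScreen binding assay gave IC50.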

CSNK1D = target: T5, CSNK1D (Homo sapiens, UniProt P48730); assay: ThermoFisher SelectScreen, CSNK1D; format: binding
T5 construct: purchased ThermoFisher (SelectScreen)

PHKG2 = target: T6, PHKG2 (Homo sapiens, UniProt P15735); assay: ThermoFisher SelectScreen, PHKG2; format: binding; conditions: Table 4
T6 construct: purchased ThermoFisher (SelectScreen, outsourced service)
T6 sequence (P15735 1-406): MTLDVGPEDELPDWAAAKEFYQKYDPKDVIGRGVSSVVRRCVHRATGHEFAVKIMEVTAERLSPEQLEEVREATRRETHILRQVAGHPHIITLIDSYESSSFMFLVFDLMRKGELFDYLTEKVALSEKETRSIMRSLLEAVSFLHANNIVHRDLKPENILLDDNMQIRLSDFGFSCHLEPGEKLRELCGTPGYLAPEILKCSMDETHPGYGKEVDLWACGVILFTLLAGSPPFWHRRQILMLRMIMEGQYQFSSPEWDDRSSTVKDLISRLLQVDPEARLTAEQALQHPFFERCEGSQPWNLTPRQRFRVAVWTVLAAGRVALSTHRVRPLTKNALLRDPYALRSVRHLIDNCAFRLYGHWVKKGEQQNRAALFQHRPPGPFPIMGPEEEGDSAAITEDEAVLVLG
Protocol: as §1, §2

[4] = Plasma ALT and AST after oral administration; format: in vivo, mouse; conditions: 24 h post-dose, individual mice 1-4

T3 sequence (Q8NEB9 whole entry): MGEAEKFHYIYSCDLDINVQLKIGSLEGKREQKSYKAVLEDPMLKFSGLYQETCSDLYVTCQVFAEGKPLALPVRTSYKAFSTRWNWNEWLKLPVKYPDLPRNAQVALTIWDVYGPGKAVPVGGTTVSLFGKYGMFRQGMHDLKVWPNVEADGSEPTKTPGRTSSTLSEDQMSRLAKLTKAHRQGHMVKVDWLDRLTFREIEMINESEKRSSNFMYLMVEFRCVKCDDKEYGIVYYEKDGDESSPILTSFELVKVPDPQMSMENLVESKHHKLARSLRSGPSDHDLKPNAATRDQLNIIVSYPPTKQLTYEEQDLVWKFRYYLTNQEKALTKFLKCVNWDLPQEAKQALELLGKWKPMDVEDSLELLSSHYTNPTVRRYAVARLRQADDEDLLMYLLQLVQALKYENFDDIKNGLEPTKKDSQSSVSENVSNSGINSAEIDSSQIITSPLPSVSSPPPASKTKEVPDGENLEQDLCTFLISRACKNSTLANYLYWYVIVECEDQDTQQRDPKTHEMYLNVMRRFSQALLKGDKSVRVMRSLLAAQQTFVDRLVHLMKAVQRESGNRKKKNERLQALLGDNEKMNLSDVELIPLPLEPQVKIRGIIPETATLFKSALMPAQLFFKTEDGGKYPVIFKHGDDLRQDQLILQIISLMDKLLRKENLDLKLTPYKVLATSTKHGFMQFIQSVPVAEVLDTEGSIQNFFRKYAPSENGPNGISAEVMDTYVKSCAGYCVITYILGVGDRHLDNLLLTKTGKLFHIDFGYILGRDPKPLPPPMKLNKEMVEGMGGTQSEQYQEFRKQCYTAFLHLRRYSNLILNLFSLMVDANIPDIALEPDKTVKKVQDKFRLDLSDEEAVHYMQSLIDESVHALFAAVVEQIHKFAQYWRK
T4 sequence (P45983 whole entry): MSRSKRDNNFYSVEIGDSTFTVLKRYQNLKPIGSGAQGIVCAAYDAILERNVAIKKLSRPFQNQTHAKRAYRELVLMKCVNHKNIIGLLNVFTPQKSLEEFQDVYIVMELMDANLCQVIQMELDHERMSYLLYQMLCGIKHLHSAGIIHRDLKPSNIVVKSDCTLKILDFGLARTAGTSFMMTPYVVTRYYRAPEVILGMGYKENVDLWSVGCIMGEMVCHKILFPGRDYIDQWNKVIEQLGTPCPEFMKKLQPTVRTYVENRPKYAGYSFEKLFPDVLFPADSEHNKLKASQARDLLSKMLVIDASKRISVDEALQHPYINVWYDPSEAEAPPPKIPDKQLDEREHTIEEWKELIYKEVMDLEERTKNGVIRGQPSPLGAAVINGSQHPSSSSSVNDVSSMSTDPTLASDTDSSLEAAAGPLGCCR
T5 sequence (P48730 whole entry): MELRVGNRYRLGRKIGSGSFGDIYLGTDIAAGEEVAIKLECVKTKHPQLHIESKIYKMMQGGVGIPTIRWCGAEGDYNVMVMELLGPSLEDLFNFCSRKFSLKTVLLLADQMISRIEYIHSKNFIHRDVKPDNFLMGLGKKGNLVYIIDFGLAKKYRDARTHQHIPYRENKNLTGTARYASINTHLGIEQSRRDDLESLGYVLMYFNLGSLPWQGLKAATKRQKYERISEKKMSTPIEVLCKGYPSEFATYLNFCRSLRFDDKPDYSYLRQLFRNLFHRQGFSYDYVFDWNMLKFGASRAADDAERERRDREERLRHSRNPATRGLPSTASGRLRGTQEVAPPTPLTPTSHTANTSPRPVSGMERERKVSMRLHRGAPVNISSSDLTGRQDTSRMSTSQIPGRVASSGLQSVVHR
T1 sequence (P49674 whole entry): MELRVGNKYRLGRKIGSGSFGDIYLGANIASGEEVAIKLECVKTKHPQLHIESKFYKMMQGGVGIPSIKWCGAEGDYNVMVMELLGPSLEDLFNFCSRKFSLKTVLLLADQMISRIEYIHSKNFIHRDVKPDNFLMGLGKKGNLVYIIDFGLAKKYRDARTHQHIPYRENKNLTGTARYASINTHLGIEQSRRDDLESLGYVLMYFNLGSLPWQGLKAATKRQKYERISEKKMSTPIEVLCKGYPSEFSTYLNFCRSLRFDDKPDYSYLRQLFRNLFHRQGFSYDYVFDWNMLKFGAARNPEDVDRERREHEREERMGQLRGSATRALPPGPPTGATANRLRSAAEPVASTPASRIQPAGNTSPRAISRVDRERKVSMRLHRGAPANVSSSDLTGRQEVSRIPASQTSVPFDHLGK

| SMILES | Kd (CSNK1E) | half-life [1] | Kd (MEK4) | Kd (hVPS34) | IC50 (JNK1 [2]) | inhibition of binding to JNK1, JNK2, and JNK3 relative to staurosporine (JNK1 [2]; NanoBRET) | Kd (JNK1 [3]) | Kd (CSNK1D) | Kd (PHKG2) | improvement of NanoBRET IC50 for JNK1 (CDD-2346/CDD-2728) (JNK1 [2]; relative to CDD-2346) | ALT [4] | AST [4] |
| --- | --- | --- | --- | --- | --- | --- | --- | --- | --- | --- | --- | --- |
| CNCc1ccc(NC(=O)c2ccn3ncc(-c4cnc5[nH]ccc5c4)c3c2)cc1 [CDD-2346, N-(4-((methylamino)methyl)phenyl)-3-(1H-pyrrolo[2,3-b]pyridin-5-yl)pyrazolo[1,5-a]pyridine-5-carboxamide] | 48 nM | 189 min | 18 nM | 109 nM | 5100 nM | superior to staurosporine | 0.23 ± 0.08 nM | 55 nM | 188 nM |  |  |  |
| CN(C)Cc1ccc(NC(=O)c2ccn3ncc(-c4cnc5[nH]ccc5c4)c3c2)cc1 [CDD-2482, N-(4-((dimethylamino)methyl)phenyl)-3-(1H-pyrrolo[2,3-b]pyridin-5-yl)pyrazolo[1,5-a]pyridine-5-carboxamide] | 29 nM | 56.7 min | 9 nM | 255 nM |  |  | 0.25 ± 0.04 nM | 30 nM | 110 nM |  |  |  |
| O=C(Nc1ccc(F)cc1)c1ccn2ncc(-c3cnc4[nH]ccc4c3)c2c1 [CDD-2486, N-(4-fluorophenyl)-3-(1H-pyrrolo[2,3-b]pyridin-5-yl)pyrazolo[1,5-a]pyridine-5-carboxamide] | 235 nM | 33.9 min | 26.2 nM | 1140 nM | 770 nM |  | 1.7 ± 0.2 nM | 2350 nM | 1950 nM |  |  |  |
| CN(C)C(=O)c1cc(NC(=O)c2cc3c(-c4cnc5[nH]ccc5c4)cccc3s2)ccc1O [CDD-2728, N-(3-(dimethylcarbamoyl)-4-hydroxyphenyl)-4-(1H-pyrrolo[2,3-b]pyridin-5-yl)benzo[b]thiophene-2-carboxamide] | 1070 nM | 173 min | 18 nM |  | 599 nM |  | 0.24 ± 0.05 nM | 821 nM |  | 8.5 fold | 43.49 IU/L and 21.92 IU/L and 36.24 IU/L and 30.94 IU/L | 69.13 IU/L and 76.02 IU/L and 61.79 IU/L and 41.64 IU/L |
